# Results: ChEMBL document CHEMBL3886382, “PDE 10a inhibitors for the treatment of type II diabetes” (2015)
# Assays:
# [1] = biological target: T1, cAMP and cAMP-inhibited cGMP 3',5'-cyclic phosphodiesterase 10A (Rattus norvegicus, UniProt Q9QYJ6); test: In Vitro Assay: Rat recombinant PDE10a (rPDE10a) was expressed in Sf9 cells using a recombinant rPDE10a baculovirus construct. Cells were harvested after 48 h of infection and the rPDE10a protein was purified by metal chelate chromatography on Ni-sepharose 6FF. Tested compounds were dissolved and diluted in 100% DMSO to a concentration 100 fold of the final concentration in the assay. Compound dilutions (0.4 uL) were added in 384 well plates to 20 uL of incubation buffer (50 mM Tris pH 7.8, 8.3 mM MgCl2, 1.7 mM EGTA). 10 uL of rPDE10a enzyme in incubation buffer was added and the reaction was started by addition of 10 uL substrate to a final concentration of 60 nM cAMP and 0.008 uCi3H-cAMP. The reaction was incubated for 60 min at rt. After incubation, the reaction was stopped with 20 uL of 17.8 mg/mL PDE SPA beads. After sedimentation of the beads during 30 min the radioactivity was measured in a Perkin Elmer Topcount scintillation counter.
# T1 sequence (Q9QYJ6 whole entry): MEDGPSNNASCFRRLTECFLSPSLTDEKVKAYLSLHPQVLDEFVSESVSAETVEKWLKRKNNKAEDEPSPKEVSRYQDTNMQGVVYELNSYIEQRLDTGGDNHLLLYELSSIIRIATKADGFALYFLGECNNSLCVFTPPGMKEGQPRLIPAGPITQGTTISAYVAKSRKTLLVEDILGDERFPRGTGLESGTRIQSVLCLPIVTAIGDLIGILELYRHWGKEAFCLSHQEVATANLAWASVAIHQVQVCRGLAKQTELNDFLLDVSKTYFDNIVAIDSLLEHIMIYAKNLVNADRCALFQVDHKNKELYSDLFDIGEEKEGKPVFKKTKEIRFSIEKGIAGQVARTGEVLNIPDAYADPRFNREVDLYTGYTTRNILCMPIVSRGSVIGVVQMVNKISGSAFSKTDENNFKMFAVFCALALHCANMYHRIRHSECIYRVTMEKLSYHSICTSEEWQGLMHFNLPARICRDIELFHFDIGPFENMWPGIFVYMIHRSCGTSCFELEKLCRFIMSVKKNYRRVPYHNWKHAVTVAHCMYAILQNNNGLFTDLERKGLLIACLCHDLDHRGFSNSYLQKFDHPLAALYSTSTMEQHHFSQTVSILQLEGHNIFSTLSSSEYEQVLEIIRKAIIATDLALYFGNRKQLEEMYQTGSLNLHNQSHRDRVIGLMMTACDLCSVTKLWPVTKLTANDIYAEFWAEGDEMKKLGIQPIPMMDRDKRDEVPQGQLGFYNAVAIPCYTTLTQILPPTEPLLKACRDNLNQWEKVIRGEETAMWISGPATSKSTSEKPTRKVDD
# [2] = biological target: cAMP and cAMP-inhibited cGMP 3',5'-cyclic phosphodiesterase 10A (Homo sapiens, UniProt Q9Y233); test: In Vitro Assay: Human recombinant PDE10A2 was expressed in Sf9 cells, using a recombinant baculovirus construct containing the full length sequence containing a 6ÿHis sequence following the start Met to allow metal affinity purification of the recombinant protein. Cells were harvested and the phosphodiesterase protein was purified by metal chelate chromatography on Ni-sepharose 6FF.The affinity of the compounds of Formula (I) for phophodiesterases (PDE) was measured by a scintillation proximity assay (SPA). PDE Yttrium Silicate SPA beads allow PDE activity to be measured by direct binding of the primary phosphate groups of non-cyclic AMP or GMP to the beads via a complex iron chelation mechanism. The amount of bound tritiated product ([3H]-AMP) is measured by liquid scintillation counting.The compounds were dissolved and diluted in 100% DMSO in polystyrene plates to a concentration of 100-fold the final concentration in the assay. Human PDE10A enzyme solution (10 uL) was added.
# Chain of cAMP and cAMP-inhibited cGMP 3',5'-cyclic phosphodiesterase 10A (Homo sapiens, UniProt Q9Y233) (Q9Y233 whole entry): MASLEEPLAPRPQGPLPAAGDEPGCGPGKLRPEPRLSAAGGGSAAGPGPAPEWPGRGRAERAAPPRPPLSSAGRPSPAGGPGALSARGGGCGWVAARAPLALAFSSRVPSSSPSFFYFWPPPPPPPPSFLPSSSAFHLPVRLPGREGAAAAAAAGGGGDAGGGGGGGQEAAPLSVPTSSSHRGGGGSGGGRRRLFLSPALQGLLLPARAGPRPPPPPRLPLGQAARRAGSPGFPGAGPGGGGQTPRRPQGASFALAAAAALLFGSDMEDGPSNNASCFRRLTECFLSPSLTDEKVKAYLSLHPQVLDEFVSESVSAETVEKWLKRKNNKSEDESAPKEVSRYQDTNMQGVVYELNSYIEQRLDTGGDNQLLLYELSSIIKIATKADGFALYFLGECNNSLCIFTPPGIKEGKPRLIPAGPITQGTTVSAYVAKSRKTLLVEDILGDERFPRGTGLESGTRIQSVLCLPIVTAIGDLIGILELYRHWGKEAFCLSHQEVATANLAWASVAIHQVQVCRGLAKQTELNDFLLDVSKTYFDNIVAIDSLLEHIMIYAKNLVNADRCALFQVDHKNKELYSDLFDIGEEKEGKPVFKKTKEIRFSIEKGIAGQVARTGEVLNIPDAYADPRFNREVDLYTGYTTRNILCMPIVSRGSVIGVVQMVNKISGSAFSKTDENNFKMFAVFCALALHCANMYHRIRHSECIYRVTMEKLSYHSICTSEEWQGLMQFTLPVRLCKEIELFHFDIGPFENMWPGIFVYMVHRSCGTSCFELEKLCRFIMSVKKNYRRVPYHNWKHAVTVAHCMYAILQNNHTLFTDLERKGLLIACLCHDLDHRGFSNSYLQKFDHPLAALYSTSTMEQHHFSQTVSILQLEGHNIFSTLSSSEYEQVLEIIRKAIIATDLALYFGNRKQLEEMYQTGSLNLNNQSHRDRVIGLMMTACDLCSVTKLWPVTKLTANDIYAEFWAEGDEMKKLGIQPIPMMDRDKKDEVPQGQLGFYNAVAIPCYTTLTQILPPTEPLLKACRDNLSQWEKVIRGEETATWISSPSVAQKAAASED
Compound,IC50 [1] [nM],IC50 [2] [nM]
O=C(O)c1ccc(-c2c(CSc3ccc4ccccc4n3)nc3c(N4CCOCC4)ccnn23)cc1,1,–
O=C(O)c1cccc2nc(/C=C/c3nc4c(N5CCOCC5)cc(Cl)nn4c3-c3cccnc3)ccc12,2,–
C(#Cc1nc2c(N3CCOCC3)ccnn2c1-c1ccc(N2CCNCC2)nc1)c1ccc2ccccc2n1,1,3
O=C(O)c1cccc2nc(/C=C/c3nc4c(N5CCOCC5)ccnn4c3-c3ccccc3)ccc12,1,< 1
O=C(O)CN1CCC(c2c(C#Cc3ccc4ccccc4n3)nc3c(N4CCOCC4)ccnn23)CC1,5,7
COc1cccc(-c2c(/C=C/c3ccc4c(C(=O)O)cccc4n3)nc3c(N4CCOCC4)ccnn23)c1,–,1
C(=C\c1nc2c(N3CCOCC3)ccnn2c1-c1ccc(Sc2nnc[nH]2)nc1)/c1ccc2ccccc2n1,4,6
N#Cc1ccc(-c2c(/C=C/c3ccc4c(C(=O)O)cccc4n3)nc3c(N4CCOCC4)ccnn23)cc1,1,–
